According to ChEMBL document CHEMBL2429715, “Potent P-glycoprotein inhibition of emodin derivative: synthesis and biological evaluation” (Med Chem Res, 2013):

Key:
HepG2 = assay: Growth inhibition of human HepG2 cells at 10 uM after 48 hrs by MTT assay relative to control; format: functional; details: HepG2, 48 h, read-out: GI
[1] = molecular target: T1, ATP-dependent translocase ABCB1 (Homo sapiens, UniProt P08183); assay: Inhibition of P-glycoprotein in human K562/ADR cells at 10 to 20 uM after 30 mins by rhodamine 123 staining-based fluorescence assay; format: cell-based; details: 0.5 h
[2] = Growth inhibition of human QSG7701 cells at 10 uM after 48 hrs by MTT assay relative to control; details: read-out: GI
[3] = molecular target: T1, ATP-dependent translocase ABCB1; assay: Inhibition of P-glycoprotein in human K562/ADR cells after 30 mins by rhodamine 123 staining-based fluorescence assay; format: cell-based; details: 0.5 h
K562 = assay: Growth inhibition of human K562 cells at 10 uM after 48 hrs by MTT assay relative to control; format: functional; details: K562, 48 h, read-out: GI
HCT-116 = assay: Growth inhibition of human HCT116 cells at 10 uM after 48 hrs by MTT assay relative to control; format: functional; details: HCT-116, 48 h, read-out: GI
[4] = molecular target: T1, ATP-dependent translocase ABCB1; assay: Inhibition of P-glycoprotein in human K562/ADR cells at 20 to 50 uM after 30 mins by rhodamine 123 staining-based fluorescence assay; format: cell-based; details: 0.5 h

T1 sequence (P08183 whole entry): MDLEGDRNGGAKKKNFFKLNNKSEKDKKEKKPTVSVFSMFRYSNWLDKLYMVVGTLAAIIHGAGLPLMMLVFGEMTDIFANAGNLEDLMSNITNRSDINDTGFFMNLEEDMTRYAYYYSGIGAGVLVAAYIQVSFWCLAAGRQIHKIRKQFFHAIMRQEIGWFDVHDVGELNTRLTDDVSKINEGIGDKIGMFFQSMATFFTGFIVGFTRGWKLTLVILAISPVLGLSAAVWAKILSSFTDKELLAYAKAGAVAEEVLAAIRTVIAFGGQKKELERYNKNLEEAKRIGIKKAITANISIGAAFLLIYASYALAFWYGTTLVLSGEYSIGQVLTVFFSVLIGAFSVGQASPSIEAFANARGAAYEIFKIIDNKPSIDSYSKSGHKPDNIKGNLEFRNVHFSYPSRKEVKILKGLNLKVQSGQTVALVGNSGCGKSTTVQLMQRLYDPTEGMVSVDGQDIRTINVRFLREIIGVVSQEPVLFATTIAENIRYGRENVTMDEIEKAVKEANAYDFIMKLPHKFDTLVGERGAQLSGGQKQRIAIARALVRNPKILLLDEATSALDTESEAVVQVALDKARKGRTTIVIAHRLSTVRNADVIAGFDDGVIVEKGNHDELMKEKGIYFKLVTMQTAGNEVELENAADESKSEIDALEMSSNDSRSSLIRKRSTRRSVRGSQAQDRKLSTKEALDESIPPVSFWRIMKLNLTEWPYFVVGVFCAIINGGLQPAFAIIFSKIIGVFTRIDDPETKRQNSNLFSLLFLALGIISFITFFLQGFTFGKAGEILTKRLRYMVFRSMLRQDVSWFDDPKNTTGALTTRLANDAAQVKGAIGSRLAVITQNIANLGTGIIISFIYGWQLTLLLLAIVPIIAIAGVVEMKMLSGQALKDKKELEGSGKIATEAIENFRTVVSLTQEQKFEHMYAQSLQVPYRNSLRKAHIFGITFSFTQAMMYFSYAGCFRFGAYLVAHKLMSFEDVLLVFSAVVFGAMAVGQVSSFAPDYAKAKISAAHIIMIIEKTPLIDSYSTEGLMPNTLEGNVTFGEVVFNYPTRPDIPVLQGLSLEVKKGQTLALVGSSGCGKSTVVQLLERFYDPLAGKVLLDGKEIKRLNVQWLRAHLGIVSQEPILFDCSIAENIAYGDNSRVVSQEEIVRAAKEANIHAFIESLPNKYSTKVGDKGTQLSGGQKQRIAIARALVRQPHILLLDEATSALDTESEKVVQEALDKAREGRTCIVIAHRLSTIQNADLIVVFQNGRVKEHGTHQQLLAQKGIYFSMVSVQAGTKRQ

Structure (SMILES)	inhibition of growth at 10 µM (HepG2) [%]	inhibition (INH) [1]	inhibition at 48 h, 10 µM [2] [%]	inhibition (INH) [3]	inhibition of growth at 10 µM (K562) [%]	inhibition of growth at 10 µM (HCT-116) [%]	inhibition (INH) [4]
COc1cc(OC)c2c(c1)C(=O)c1cc(CNCCCNCCCN)cc(OC)c1C2=O.Cl	5.85	Active	0.01	Dose-dependent effect	0.01	15.3	–
COc1cc(OC)c2c(c1)C(=O)c1cc(CNCCCN)cc(OC)c1C2=O.Cl.Cl	0.01	–	5.77	–	0.01	31.9	Not Active
COc1cc(OC)c2c(c1)C(=O)c1cc(CNCCCCN)cc(OC)c1C2=O.Cl.Cl	0.01	–	0.01	–	0.01	27.5	Not Active
COc1cc(OC)c2c(c1)C(=O)c1cc(CNCCN)cc(OC)c1C2=O.Cl.Cl	0.01	–	2.55	–	0.01	25.4	Not Active
O=C1c2c(O)ccc(O)c2C(=O)c2c(NCCNCCO)ccc(NCCNCCO)c21 [MITOXANTRONE]	62.7	–	59	–	52.1	53.2	–
COc1ccc(CCN(C)CCCC(C#N)(c2ccc(OC)c(OC)c2)C(C)C)cc1OC (stereo unspecified) [VERAPAMIL]	–	Active	–	–	–	–	–
